The text below walks through data of US9980943B2, “Methods of treating muscular dystrophy” (BOARD OF REGENTS OF THE NEVADA SYSTEM OF HIGHER EDUCATION, …, priority 2013, dated 2018).

Common to all, as to format: cell-based, mouse
Assay [1] concerns α7 integrin (LacZ reporter in α7βgal+/− myoblasts). Kind of assay: Myoblast α7+/LacZ integrin FDG assay (Burkin assay in myoblasts, 96-well). Conditions: 96-well; for Burkin Assay in Myoblasts, signal relative to DMSO: α7+/LacZ myoblasts; for Burkin Assay in Myoblasts, value relative to DMSO: SU9516 analogs, N=3-6.
In assay [2] the test system is α7 integrin (LacZ reporter in α7+/LacZ myotubes). Kind of assay: Myotube α7 integrin FDG assay (Burkin assay in myotubes, 96-well). Conditions: for Burkin Assay in Myotubes, value relative to DMSO: SU9516 analogs, 96-well, N=3-6.
Assay [3] relates to β-galactosidase in CMV-LacZ C2C12 myoblasts. Kind of assay: CMV-LacZ secondary screen in C2C12 myoblasts (β-Gal stabilizing assay). Conditions: for CMV-LACZ in Myoblasts (β-galactosidase activity relative to DMSO): CMV-LacZ C2C12 myoblasts; for CMV-LACZ in Myoblasts, value relative to DMSO: SU9516 analogs, C2C12 CMV-LacZ, N=2. In short, it runs like this:
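β-gal stabilization was measured in C2C12 myoblasts or myotubes stably transfected with a CMV-driven LacZ construct, using the FDG β-gal assay. Compounds were tested in dose-response at 0.5, 1, 5, 10, 20 and 40 μM, with two replicates per point.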

In assay [4] the test system is β-galactosidase in CMV-LacZ C2C12 myotubes. Nature of the assay: CMV-LacZ secondary screen in C2C12 myotubes (β-Gal stabilizing assay). Conditions: for CMV-LACZ in Myotubes, signal relative to DMSO: C2C12 CMV-LacZ myotubes, fold relative to DMSO; for CMV-LACZ in Myotubes, value relative to DMSO: SU9516 analogs, C2C12 CMV-LacZ, N=2. In short, it runs like this:
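A secondary screen identifies compounds that stabilize β-gal independently of the native promoter, using CMV-LacZ C2C12 cells. Curves span 0.5–40 μM at six levels, in duplicate.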

Turning to `CC(C)(C)NC(=O)NC(=O)CN1CCN(Cc2ccccc2)CC1` [MLS001006302-01], the “Burkin Assay in Myoblasts, signal relative to DMSO” value is 1.123 in assay [1] (0.5 uM); 0.9303 in assay [1] (1 uM); 0.9535 in assay [1] (5 uM); 1.172 in assay [1] (10 uM); 0.973 in assay [1] (20 uM); 0.9414 in assay [1] (40 uM). The “Burkin Assay in Myotubes, α7 integrin LacZ reporter signal relative to DMSO” value in assay [2] (0.5 uM) is on record as 0.9822; in assay [2] (1 uM) it was 0.9373; in assay [2] (5 uM), 1.039; in assay [2] (10 uM), 1.212; in assay [2] (20 uM), 0.7835; in assay [2] (40 uM) it was 1.078. The “CMV-LACZ in Myoblasts (β-galactosidase activity relative to DMSO)” value in assay [3] (0.5 uM) was 0.9343; in assay [3] (1 uM), 0.7663; in assay [3] (5 uM), 0.8911; in assay [3] (10 uM) it was 1.0767; in assay [3] (20 uM), 0.9502; in assay [3] (40 uM), 0.7646. The “CMV-LACZ in Myotubes, signal relative to DMSO” value in assay [4] (0.5 uM) was found to be 1.0229; in assay [4] (1 uM) it was 0.9143; in assay [4] (5 uM), 0.9398; in assay [4] (10 uM), 1.0122; in assay [4] (20 uM) it was 0.9010; in assay [4] (40 uM), 0.9720.
`COc1ccc(Cl)cc1NC(=O)c1cc(-c2cc(C)ccc2O)n[nH]1` [MLS000779126-01]: the “Burkin Assay in Myoblasts, signal relative to DMSO” value was found to be 1.019 in assay [1] (0.5 uM); 1.115 in assay [1] (1 uM); 0.9229 in assay [1] (5 uM); 0.8196 in assay [1] (10 uM); 0.9124 in assay [1] (20 uM); 0.9389 in assay [1] (40 uM). Besides, the “Burkin Assay in Myotubes, α7 integrin LacZ reporter signal relative to DMSO” value in assay [2] (0.5 uM) is reported as 0.9836; in assay [2] (1 uM), 1.018; in assay [2] (5 uM) it was 0.9146; in assay [2] (10 uM) it was 0.8758; in assay [2] (20 uM), 0.8832; in assay [2] (40 uM), 0.7768. Further, the “CMV-LACZ in Myoblasts (β-galactosidase activity relative to DMSO)” value in assay [3] (0.5 uM) came to 0.9751; in assay [3] (1 uM) it was 0.9994; in assay [3] (5 uM), 0.9637; in assay [3] (10 uM), 0.7610; in assay [3] (20 uM), 0.9944; in assay [3] (40 uM), 0.7441. The “CMV-LACZ in Myotubes, signal relative to DMSO” value in assay [4] (0.5 uM) is 0.9495; in assay [4] (1 uM), 1.2162; in assay [4] (5 uM) it was 1.0257; in assay [4] (10 uM) it was 1.0467; in assay [4] (20 uM), 0.9988; in assay [4] (40 uM) it was 1.1671.
`Cc1nnc(-c2ccc(N3CCOCC3)c([N+](=O)[O-])c2)o1` [MLS001359861-01]: the “Burkin Assay in Myoblasts, signal relative to DMSO” value amounted to 0.9353 in assay [1] (0.5 uM); 0.9376 in assay [1] (1 uM); 0.9484 in assay [1] (5 uM); 0.9324 in assay [1] (10 uM); 0.8725 in assay [1] (20 uM); 0.9113 in assay [1] (40 uM). Besides, the “Burkin Assay in Myotubes, α7 integrin LacZ reporter signal relative to DMSO” value stood at 1.095 in assay [2] (0.5 uM); 1.184 in assay [2] (1 uM); 0.9088 in assay [2] (5 uM); 0.876 in assay [2] (10 uM); 1.0337 in assay [2] (20 uM); 0.804 in assay [2] (40 uM). For the same compound, the “CMV-LACZ in Myoblasts (β-galactosidase activity relative to DMSO)” value in assay [3] (0.5 uM) stood at 0.9444; in assay [3] (1 uM), 0.9184; in assay [3] (5 uM) it was 0.9009; in assay [3] (10 uM), 0.8064; in assay [3] (20 uM) it was 0.9074; in assay [3] (40 uM) it was 1.0330. Also, the “CMV-LACZ in Myotubes, signal relative to DMSO” value in assay [4] (0.5 uM) came out at 0.8978; in assay [4] (1 uM), 0.9533; in assay [4] (5 uM) it was 0.9547; in assay [4] (10 uM), 1.1230; in assay [4] (20 uM), 0.9976; in assay [4] (40 uM) it was 0.9412.
As to `O=C1Nc2ccccc2/C1=C/c1ccccc1F` [MLS001202389-01], the “Burkin Assay in Myoblasts, signal relative to DMSO” value is listed as 0.9323 in assay [1] (0.5 uM); 0.9481 in assay [1] (1 uM); 1.009 in assay [1] (5 uM); 1.1004 in assay [1] (10 uM); 0.5816 in assay [1] (20 uM); 0.2556 in assay [1] (40 uM). Besides, the “Burkin Assay in Myotubes, α7 integrin LacZ reporter signal relative to DMSO” value in assay [2] (0.5 uM) was determined as 0.9181; in assay [2] (1 uM), 0.9393; in assay [2] (5 uM), 0.9936; in assay [2] (10 uM) it was 1.053; in assay [2] (20 uM) it was 0.6412; in assay [2] (40 uM), 0.5594. In addition, the “CMV-LACZ in Myoblasts (β-galactosidase activity relative to DMSO)” value amounted to 1.0237 in assay [3] (0.5 uM); 1.1108 in assay [3] (1 uM); 1.0084 in assay [3] (5 uM); 0.8920 in assay [3] (10 uM); 0.6115 in assay [3] (20 uM); 0.5081 in assay [3] (40 uM). Moreover, the “CMV-LACZ in Myotubes, signal relative to DMSO” value in assay [4] (0.5 uM) is listed as 1.1558; in assay [4] (1 uM) it was 1.1821; in assay [4] (5 uM), 1.0432; in assay [4] (10 uM), 1.1312; in assay [4] (20 uM), 1.0900; in assay [4] (40 uM), 0.9311.
`O=C(O)COc1ccccc1/C=C1\C(=O)Nc2ccc(Br)cc21` [MLS001196427-01]: the “Burkin Assay in Myoblasts, value relative to DMSO” value in assay [1] (0.5 uM) is 1.02; in assay [1] (1 uM), 1.033; in assay [1] (5 uM), 0.9384; in assay [1] (10 uM), 0.9777; in assay [1] (20 uM), 0.8102; in assay [1] (40 uM), 0.8763. For the same compound, the “Burkin Assay in Myotubes, value relative to DMSO” value in assay [2] (0.5 uM) came out at 0.9194; in assay [2] (1 uM) it was 1.02; in assay [2] (5 uM), 1.022; in assay [2] (10 uM), 1.135; in assay [2] (20 uM), 0.7942; in assay [2] (40 uM) it was 0.9365. Further, the “CMV-LACZ in Myoblasts, value relative to DMSO” value in assay [3] (0.5 uM) was 0.7219; in assay [3] (1 uM), 1.0356; in assay [3] (5 uM), 0.9957; in assay [3] (10 uM), 1.1811; in assay [3] (20 uM) it was 0.7144; in assay [3] (40 uM), 0.9563. Besides, the “CMV-LACZ in Myotubes, value relative to DMSO” value in assay [4] (0.5 uM) is 0.9363; in assay [4] (1 uM) it was 1.0704; in assay [4] (5 uM) it was 0.8423; in assay [4] (10 uM), 0.9282; in assay [4] (20 uM) it was 0.9918; in assay [4] (40 uM), 0.9000.
